{"source": "patent US6410530B1", "about": "“Substituted 1,2,3,4-tetrahydronaphthalene derivatives” (AstraZeneca AB, priority 1996, dated 2002)"}
{"smiles": "CC(=O)N[C@@H]1CCc2cccc(N3CCN(C)CC3)c2C1", "values": [{"measurement": "melting point", "value": "152 to 154", "unit": "°C"}]}
{"smiles": "CCN1CCN(c2cccc3c2C[C@H](NC(C)=O)CC3)CC1", "values": [{"measurement": "melting point", "value": "142 to 143", "unit": "°C"}]}
{"smiles": "CN1CCN(c2cccc3c2C[C@H](NC(=O)C(F)(F)F)CC3)CC1", "values": [{"measurement": "melting point", "value": "158 to 159", "unit": "°C"}]}
{"smiles": "CN1CCN(c2cccc3c2C[C@H](NS(C)(=O)=O)CC3)CC1", "values": [{"measurement": "melting point", "value": "135 to 137", "unit": "°C"}]}
{"smiles": "CCCC(=O)N[C@@H]1CCc2cccc(N3CCN(C)CC3)c2C1", "values": [{"measurement": "melting point", "value": "131 to 132", "unit": "°C"}]}
{"smiles": "CCCN1CCN(c2cccc3c2C[C@H](NC(C)=O)CC3)CC1", "note": "[Example 24, (R)-N-[8-(4-Propylpiperazin-1-yl)-1,2,3,4-tetrahydro-2-naphthyl]acetamide]", "values": [{"measurement": "melting point", "value": "139 to 140", "unit": "°C"}]}
{"smiles": "CCCCN1CCN(c2cccc3c2C[C@H](NC(C)=O)CC3)CC1", "note": "[Example 27, (R)-N-[8-(4-Butylpiperazin-1-yl)-1,2,3,4-tetrahydro-2-naphthyl]acetamide]", "values": [{"measurement": "melting point", "value": "118 to 120", "unit": "°C"}]}
{"smiles": "CCCCCN1CCN(c2cccc3c2C[C@H](NC(C)=O)CC3)CC1", "note": "[Example 30, (R)-N-[8-(4-Pentylpiperazin-1-yl)-1,2,3,4-tetrahydro-2-naphthyl]acetamide]", "values": [{"measurement": "melting point", "value": "119 to 120", "unit": "°C"}]}
{"smiles": "CCCCCCN1CCN(c2cccc3c2C[C@H](NC(C)=O)CC3)CC1", "note": "[Example 33, (R)-N-[8-(4-Hexylpiperazin-1-yl)-1,2,3,4-tetrahydro-2-naphthyl]acetamide]", "values": [{"measurement": "melting point", "value": "117 to 118", "unit": "°C"}]}
{"smiles": "CN1CCN(c2cccc3c2C[C@H](NC(=O)C2CCCCC2)CC3)CC1", "note": "[Example 36, (R)-N-[8-(4-Methylpiperazin-1-yl)-1,2,3,4-tetrahydro-2-naphthyl]cyclohexanecarboxamide]", "values": [{"measurement": "melting point", "value": "183 to 184", "unit": "°C"}]}
{"smiles": "CN1CCN(c2cccc3c2C[C@H](NC(=O)c2ccc(-c4ccccc4)cc2)CC3)CC1", "note": "[Example 44, (R)-N-[8-(4-Methylpiperazin-1-yl)-1,2,3,4-tetrahydro-2-naphthyl]-1,1′-biphenyl-4-carboxamide]", "values": [{"measurement": "melting point", "value": "232 to 233", "unit": "°C"}]}
{"smiles": "CN1CCN(c2cccc3c2C[C@H](NC(=O)c2csc(-c4ccccc4)n2)CC3)CC1", "note": "[Example 46, (R)-N-[8-(4-Methylpiperazin-1-yl)-1,2,3,4-tetrahydro-2-naphthyl]-2-phenylthiazole-4-carboxamide]", "values": [{"measurement": "melting point", "value": "175 to 176", "unit": "°C"}]}
{"smiles": "CN1CCN(c2cccc3c2C[C@H](NC(=O)c2csc(-c4ccncc4)n2)CC3)CC1", "note": "[Example 47, (R)-N-[8-(4-Methylpiperazin-1-yl)-1,2,3,4-tetrahydro-2-naphthyl]-2-(4-pyridyl)thiazole-4-carboxamide]", "values": [{"measurement": "melting point", "value": "187 to 188", "unit": "°C"}]}
{"smiles": "CN1CCN(c2cccc3c2C[C@H](NC(=O)c2ccccc2)CC3)CC1", "note": "[Example 48, (R)-N-[8-(4-Methylpiperazin-1-yl)-1,2,3,4-tetrahydro-2-naphthyl]benzamide]", "values": [{"measurement": "melting point", "value": "195 to 196", "unit": "°C"}]}
{"smiles": "COc1ccc(C(=O)N[C@@H]2CCc3cccc(N4CCN(C)CC4)c3C2)cc1", "note": "[Example 49, (R)-N-[8-(4-Methylpiperazin-1-yl)-1,2,3,4-tetrahydro-2-naphthyl]-4-methoxybenzamide]", "values": [{"measurement": "melting point", "value": "186 to 187", "unit": "°C"}]}
{"smiles": "CN1CCN(c2cccc3c2C[C@H](NC(=O)c2ccc(C#N)cc2)CC3)CC1", "note": "[Example 50, (R)-N-[8-(4-Methylpiperazin-1-yl)-1,2,3,4-tetrahydro-2-naphthyl]-4-cyanobenzamide]", "values": [{"measurement": "melting point", "value": "184 to 186", "unit": "°C"}]}
{"smiles": "O=C(N[C@@H]1CCc2cccc(N3CCNCC3)c2C1)c1ccc(N2CCOCC2)cc1", "note": "[Example 53, (R)-N-[8-(Piperazin-1-yl)-1,2,3,4-tetrahydro-2-naphthyl]-4-morpholinobenzamide]", "values": [{"measurement": "melting point", "value": "202 to 203", "unit": "°C"}]}
{"smiles": "CN1CCN(c2cccc3c2C[C@H](NC(=O)c2ccc(N4CCOCC4)cc2)CC3)CC1", "note": "[Example 54, (R)-N-[8-(4-Methylpiperazin-1-yl)-1,2,3,4-tetrahydro-2-naphthyl]-4-morpholinobenzamide]", "values": [{"measurement": "melting point", "value": "230 to 231", "unit": "°C"}]}
{"smiles": "CN1CCN(c2cccc3c2C[C@@H](NC(=O)c2ccc(N4CCOCC4)cc2)CC3)CC1", "note": "[Example 55, (S)-N-[8-(4-Methylpiperazin-1-yl)-1,2,3,4-tetrahydro-2-naphthyl]-4-morpholinobenzamide]", "values": [{"measurement": "melting point", "value": "228 to 230", "unit": "°C"}]}
{"smiles": "CCCN1CCN(c2cccc3c2C[C@H](NC(=O)c2ccc(N4CCOCC4)cc2)CC3)CC1", "note": "[Example 57, (R)-N-[8-(4-Propylpiperazin-1-yl)-1,2,3,4-tetrahydro-2-naphthyl]-4-morpholinobenzamide]", "values": [{"measurement": "melting point", "value": "183 to 185", "unit": "°C"}]}
{"smiles": "Cc1cc(C(=O)N[C@@H]2CCc3cccc(N4CCN(C)CC4)c3C2)ccc1N1CCOCC1", "note": "[Example 61, (R)-N-[8-(4-Methylpiperazin-1-yl)-1,2,3,4-tetrahydro-2-naphthyl]-3-methyl-4-morpholinobenzamide]", "values": [{"measurement": "melting point", "value": "172 to 175", "unit": "°C"}]}
{"smiles": "CN1CCN(c2cccc3c2C[C@H](NC(=O)c2ccc(C4CCCCC4)cc2)CC3)CC1", "note": "[Example 63, (R)-N-[8-(4-Methylpiperazin-1-yl)-1,2,3,4-tetrahydro-2-naphthyl]-4-cyclohexylbenzamide]", "values": [{"measurement": "melting point", "value": "224 to 226", "unit": "°C"}]}
{"smiles": "CN1CCN(c2cccc3c2C[C@H](NC(=O)c2ccc(C(F)(F)F)cc2)CC3)CC1", "note": "[Example 65, (R)-N-[8-(4-Methylpiperazin-1-yl)-1,2,3,4-tetrahydro-2-naphthyl]-4-trifluoromethylbenzamide]", "values": [{"measurement": "melting point", "value": "203 to 204", "unit": "°C"}]}
{"smiles": "CN1CCN(c2cccc3c2C[C@@H](NC(=O)c2ccc(C(F)(F)F)cc2)CC3)CC1", "note": "[Example 66, (S)-N-[8-(4-Methylpiperazin-1-yl)-1,2,3,4-tetrahydro-2-naphthyl]-4-trifluoromethylbenzamide]", "values": [{"measurement": "melting point", "value": "202 to 204", "unit": "°C"}]}
{"smiles": "CN1CCN(c2cccc3c2C[C@H](NC(=O)c2ccc(OS(C)(=O)=O)cc2)CC3)CC1", "note": "[Example 67, (R)-N-[8-(4-Methylpiperazin-1-yl)-1,2,3,4-tetrahydro-2-naphthyl]-4-methylsulfonyloxybenzamide]", "values": [{"measurement": "melting point", "value": "199 to 200", "unit": "°C"}]}
{"smiles": "CCc1ccc(C(=O)N[C@@H]2CCc3cccc(N4CCN(C)CC4)c3C2)cc1", "note": "[Example 69, (R)-N-[8-(4-Methylpiperazin-1-yl)-1,2,3,4-tetrahydro-2-naphthyl]-4-ethylbenzamide]", "values": [{"measurement": "melting point", "value": "177 to 178", "unit": "°C"}]}
{"smiles": "CCCCOc1ccc(C(=O)N[C@@H]2CCc3cccc(N4CCN(C)CC4)c3C2)cc1", "note": "[Example 70, (R)-N-[8-(4-Methylpiperazin-1-yl)-1,2,3,4-tetrahydro-2-naphthyl]-4-butoxybenzamide]", "values": [{"measurement": "melting point", "value": "190 to 191", "unit": "°C"}]}
{"smiles": "CCCCOc1ccc(C(=O)N[C@H]2CCc3cccc(N4CCN(C)CC4)c3C2)cc1", "note": "[Example 71, (S)-N-[8-(4-Methylpiperazin-1-yl)-1,2,3,4-tetrahydro-2-naphthyl]-4-butoxybenzamide]", "values": [{"measurement": "melting point", "value": "190 to 192", "unit": "°C"}]}
{"smiles": "CN1CCN(c2cccc3c2C[C@H](NC(=O)c2ccc(F)cc2)CC3)CC1", "note": "[Example 72, (R)-N-[8-(4-Methylpiperazin-1-yl)-1,2,3,4-tetrahydro-2-naphthyl]-4-fluorobenzamide]", "values": [{"measurement": "melting point", "value": "189 to 190", "unit": "°C"}]}
{"smiles": "CN1CCN(c2cccc3c2C[C@H](NC(=O)c2ccc(Br)cc2)CC3)CC1", "note": "[Example 73, (R)-N-[8-(4-Methylpiperazin-1-yl)-1,2,3,4-tetrahydro-2-naphthyl]-4-bromobenzamide]", "values": [{"measurement": "melting point", "value": "200 to 201", "unit": "°C"}]}
{"smiles": "CN1CCN(c2cccc3c2C[C@H](NC(=O)c2ccc(Cl)cc2)CC3)CC1", "note": "[Example 74, (R)-N-[8-(4-Methylpiperazin-1-yl)-1,2,3,4-tetrahydro-2-naphthyl]-4-chlorobenzamide]", "values": [{"measurement": "melting point", "value": "204 to 205", "unit": "°C"}]}
{"smiles": "CN1CCN(c2cccc3c2C[C@H](NC(=O)c2ccc(Cc4ccccc4)cc2)CC3)CC1", "note": "[Example 75, (R)-N-[8-(4-Methylpiperazin-1-yl)-1,2,3,4-tetrahydro-2-naphthyl]-4-benzylbenzamide]", "values": [{"measurement": "melting point", "value": "191 to 192", "unit": "°C"}]}
{"smiles": "CN1CCN(c2cccc3c2C[C@H](NC(=O)c2ccc(C(=O)c4ccccc4)cc2)CC3)CC1", "note": "[Example 76, (R)-N-[8-(4-Methylpiperazin-1-yl)-1,2,3,4-tetrahydro-2-naphthyl]-4-benzoylbenzamide]", "values": [{"measurement": "melting point", "value": "194 to 195", "unit": "°C"}]}
{"smiles": "CN1CCN(c2cccc3c2C[C@H](NC(=O)c2ccc(-n4cccc4)cc2)CC3)CC1", "note": "[Example 78, (R)-N-[8-(4-Methylpiperazin-1-yl)-1,2,3,4-tetrahydro-2-naphthyl]-4-(1H-pyrrol-1-yl)benzamide]", "values": [{"measurement": "melting point", "value": "245 to 247", "unit": "°C"}]}
{"smiles": "CN1CCN(c2cccc3c2C[C@H](NC(=O)Cc2ccccc2)CC3)CC1", "note": "[Example 80, (R)-N-[8-(4-Methylpiperazin-1-yl)-1,2,3,4-tetrahydro-2-naphthyl]phenylacetamide]", "values": [{"measurement": "melting point", "value": "151 to 152", "unit": "°C"}]}
{"smiles": "CN1CCN(c2cccc3c2C[C@H](NC(=O)CCCc2ccccc2)CC3)CC1", "note": "[Example 82, (R)-N-[8-(4-Methylpiperazin-1-yl)-1,2,3,4-tetrahydro-2-naphthyl]-4-phenylbutanamide]", "values": [{"measurement": "melting point", "value": "137 to 139", "unit": "°C"}]}
{"smiles": "CCc1ccc(-c2ccc(C(=O)N[C@@H]3CCc4cccc(N5CCN(C)CC5)c4C3)cc2)cc1", "note": "[Example 84, (R)-N-[8-(4-Methylpiperazin-1-yl)-1,2,3,4-tetrahydro-2-naphthyl]-4-(4-ethylphenyl)benzamide]", "values": [{"measurement": "melting point", "value": "234 to 235", "unit": "°C"}]}
{"smiles": "CN1CCN(c2cccc3c2C[C@H](NC(=O)c2ccc(-c4ccc(O)cc4)cc2)CC3)CC1", "note": "[Example 85, (R)-N-[8-(4-Methylpiperazin-1-yl)-1,2,3,4-tetrahydro-2-naphthyl]-4-(4-hydroxyphenyl)benzamide]", "values": [{"measurement": "melting point", "value": "261 to 262", "unit": "°C"}]}
{"smiles": "CN1CCN(c2cccc3c2C[C@H](NC(=O)c2cccc(Oc4ccccc4)c2)CC3)CC1", "note": "[Example 87, (R)-N-[8-(4-Methylpiperazin-1-yl)-1,2,3,4-tetrahydro-2-naphthyl]-3-phenoxybenzamide]", "values": [{"measurement": "melting point", "value": "136 to 137", "unit": "°C"}]}
{"smiles": "CN1CCN(c2cccc3c2C[C@H](NC(=O)c2cccc(O)c2)CC3)CC1", "note": "[Example 88, (R)-N-[8-(4-Methylpiperazin-1-yl)-1,2,3,4-tetrahydro-2-naphthyl]-3-hydroxybenzamide]", "values": [{"measurement": "melting point", "value": "117 °C (dec.)"}]}
{"smiles": "Cc1ccccc1C(=O)N[C@@H]1CCc2cccc(N3CCN(C)CC3)c2C1", "note": "[Example 90, (R)-N-[8-(4-Methylpiperazin-1-yl)-1,2,3,4-tetrahydro-2-naphthyl]-2-methylbenzamide]", "values": [{"measurement": "melting point", "value": "179 to 180", "unit": "°C"}]}
{"smiles": "CN1CCN(c2cccc3c2C[C@H](NC(=O)c2ccccc2O)CC3)CC1", "note": "[Example 92, (R)-N-[8-(4-Methylpiperazin-1-yl)-1,2,3,4-tetrahydro-2-naphthyl]-2-hydroxybenzamide]", "values": [{"measurement": "melting point", "value": "87 °C (dec.)"}]}
